US10897891B2, “Compositions and methods for prolonged cell storage” (Board of Regents, The University of Texas System, priority 2015, dated 2021)

System: platelets
Assay: Microscopic platelet degranulation at 5° C. with cryoprotective agents
Assay type: cell-based, human
Set-up: key to effect on microscopic degranulation, 0.75% / effect on microscopic degranulation, 0.38% / effect on microscopic degranulation, 3% / effect on microscopic degranulation, 1.5% / effect of cryoprotective on platelet degranulation, 3% / effect of cryoprotective on platelet degranulation, 1.5% / effect of cryoprotective on platelet degranulation, 0.75% / effect of cryoprotective on platelet degranulation, 0.38%: none: None = no effect detected ~90% complete degranulation; fair: Fair = 25 to 50% of platelets are non-degranulated; good: Good = >80 are non-degranulated
Settings: for effect of cryoprotective on platelet degranulation, 3% / effect on microscopic degranulation, 3%: 3% final in ACD-Platelet mixture; for platelet colour / granule preservation: 5° C.; for effect of cryoprotective on platelet degranulation, 0.38% / effect on microscopic degranulation, 0.38%: 0.38% final in ACD-Platelet mixture; for effect of cryoprotective on platelet degranulation, 0.75% / effect on microscopic degranulation, 0.75%: 0.75% final in ACD-Platelet mixture; for effect of cryoprotective on platelet degranulation, 1.5% / effect on microscopic degranulation, 1.5%: 1.5% final in ACD-Platelet mixture
Protocol: Platelet aggregation using epinephrine. Ten ml of 24 hr old platelet residual was derived from one platelet unit and split into two 5 ml aliquots in 50 ml tubes. One sample received 10% phosphate buffered saline (PBS) and one 10% PBS containing PEG400 such that the final PEG concentration was 2%. These samples were placed on a flat-bed rotator with a 1 inch stroke, at 70 cycles per min, at 5° C. for 7 days. 100 ul of these platelet suspensions were added to wells of a 96 well U bottom plate. Epinephrine 0.1 mg/ml (Pharmaceutical NDC 0409-4921-34-44-048-DK) was diluted with PBS and 100 ul was added to test wells to give a finial concentration of 10 mcg/ml. The plate was rotated overnight to allow aggregation. The extent of aggregation was read using an ELISA plate reader (Molecular Devises, Vmax) at 690 nm wavelength. Platelets, with and without PEG, were also aggregated by the addition of 10% H2O2. Hydrogen peroxide is not an agonist for the platelet receptor; however exposure to hydrogen peroxide mimics the platelet storage lesion though membrane ageing. In this study, the inventors tested 2 day old residual platelets form one donor unit by splitting the material in to a 24 well cluster plate. Control platelets had 10% PBS added and were compared to test compositions with the addition of 10% volume PBS plus 2% PEG-400. 10% v/v (Hydrogen peroxide 3%) was then added to all wells simultaneously using a multichannel pipette. Wells were photographed following 1 hr room temperature incubation (see FIGS. 2A-B and FIG. 3). Table 3 presents additional cryoprotective agents scored for the effect on microscopic degranulation (20× high contrast lighting as above).
The following methods were used: “Fresh” in-date 2 day old blood bank O pos random donor platelets were recovered from segments and held in a 50 cc tub with rotation 22° C., 70 cycles/min 1 inch stroke) for 30 min. Glycerol (Fisher tissue grade product) was obtained from virology diluted to 50% in sterile saline and filter sterilized. 12 g glycerol were added to 12 ml sterile saline (BioMeriux—vitek saline) and mixed. This mixture was filter sterilized using a 0.45 um filter (CELLULOSE ACETATE). Dilutions were made of the above saline to a concentration 50%, 25%, 12%, 6%, […]. 200 ul of platelets were withdrawn slowly (8 sec) and add slowly to 7 sterile 2 ml microcentrifuge tubes. 200 ul of 50%, 25%, 12% 6%, and 3% glycerol/saline and two controls using 200 ul saline, were then added to the platelets with slow mixing. Thus the final glycerol concentrations=25, 12, 6, 3, and 1.5. These aliquots were allowed to rotate at room temp as above for 5 min and then placed on a rotator at 70 cycles/min with a 1 inch stroke at 5° C. (temp previously equilibrated and documented at 5° C.)
At day 3, dark dense platelets were observed, indicating degranulation in the control groups (in both control groups A & B). A variation in platelet size was observed: small and dense indicating degranulation, vs. normal morphology pale plump platelets without the dense small degranulated appearance. Degranulation in response to cold storage is associated with the first step of the platelet activation GP-1 signal resulting in α-granule degranulation and massive extracellular release of vWF. (Suhasini el al., 2010). Table 4 presents a summary of additional cryoprotective agents scored for the effect on microscopic degranulation (20× high contrast lighting as above).

[1] = 6% final in ACD-Platelet mixture, 10 days at 5° C.

## OCC(O)CO [Glycerol]
3% and 6% glycerol, at 3, 6, and 10 days
  5° C. induced degranulation: prevented 5 °C induced degranulation
10 days at 5° C.
  effect of cryoprotective on platelet degranulation, 3%: fair (Fair = 25 to 50% of platelets are non-degranulated)
  effect on microscopic degranulation, 3%: fair (Fair = 25 to 50% of platelets are non-degranulated)
3% glycerol or 6% glycerol, day 10
  platelet colour / granule preservation: light color of platelets was observed, indicating granule preservation
3% glycerol, day 3
  platelet colour / granule preservation: light color of platelets was observed, indicating granule preservation
3% glycerol, day 6
  platelet colour / granule preservation: light color of platelets was observed, indicating granule preservation
[1]
  effect of cryoprotective on platelet degranulation, 6%: good (Good = >80 are non-degranulated)
  effect on microscopic degranulation, 6%: good (Good = >80 are non-degranulated)

## Methoxy PEG
6 days at 5° C.
  effect of cryoprotective on platelet degranulation, 0.38%: none
  effect on microscopic degranulation, 0.38%: none
  effect of cryoprotective on platelet degranulation, 0.75%: none
  effect on microscopic degranulation, 0.75%: none
  effect of cryoprotective on platelet degranulation, 1.5%: good (Good = >80 are non-degranulated)
  effect on microscopic degranulation, 1.5%: good (Good = >80 are non-degranulated)
  effect of cryoprotective on platelet degranulation, 3%: good (Good = >80 are non-degranulated)
  effect on microscopic degranulation, 3%: good (Good = >80 are non-degranulated)

## glycerol propoxylate
6 days at 5° C.
  effect of cryoprotective on platelet degranulation, 0.38%: none
  effect on microscopic degranulation, 0.38%: none
  effect of cryoprotective on platelet degranulation, 0.75%: fair (Fair = 25 to 50% of platelets are non-degranulated)
  effect on microscopic degranulation, 0.75%: fair (Fair = 25 to 50% of platelets are non-degranulated)
  effect of cryoprotective on platelet degranulation, 1.5%: fair (Fair = 25 to 50% of platelets are non-degranulated)
  effect on microscopic degranulation, 1.5%: fair (Fair = 25 to 50% of platelets are non-degranulated)
  effect of cryoprotective on platelet degranulation, 3%: none
  effect on microscopic degranulation, 3%: none

## pentaerythritol ethoxylate
6 days at 5° C.
  effect of cryoprotective on platelet degranulation, 0.38%: none
  effect on microscopic degranulation, 0.38%: none
  effect of cryoprotective on platelet degranulation, 0.75%: none
  effect on microscopic degranulation, 0.75%: none
  effect of cryoprotective on platelet degranulation, 1.5%: none
  effect on microscopic degranulation, 1.5%: none
  effect of cryoprotective on platelet degranulation, 3%: none
  effect on microscopic degranulation, 3%: none

## pentaerythritol propoxylate
6 days at 5° C.
  effect of cryoprotective on platelet degranulation, 0.38%: fair (Fair = 25 to 50% of platelets are non-degranulated)
  effect on microscopic degranulation, 0.38%: fair (Fair = 25 to 50% of platelets are non-degranulated)
  effect of cryoprotective on platelet degranulation, 0.75%: none
  effect on microscopic degranulation, 0.75%: none
  effect of cryoprotective on platelet degranulation, 1.5%: none
  effect on microscopic degranulation, 1.5%: none
  effect of cryoprotective on platelet degranulation, 3%: none
  effect on microscopic degranulation, 3%: none

## trimethylolpropane ethoxylate [Trimethylopropane ethoxylate]
6 days at 5° C.
  effect of cryoprotective on platelet degranulation, 0.38%: none
  effect on microscopic degranulation, 0.38%: none
  effect of cryoprotective on platelet degranulation, 0.75%: none
  effect on microscopic degranulation, 0.75%: none
  effect of cryoprotective on platelet degranulation, 1.5%: none
  effect on microscopic degranulation, 1.5%: none
  effect of cryoprotective on platelet degranulation, 3%: none
  effect on microscopic degranulation, 3%: none
